The text below walks through data of patent publication US20100291034A1, “COMBINATIONS OF HCV PROTEASE INHIBITOR(S) AND CYP3A4 INHIBITOR(S), AND METHODS OF TREATMENT RELATED THERETO” (Schering Corporation, priority 2006, published 2010).

Where two headings read alike, the source gives them in different places.

The conditions of series [1]: in vivo; cited from earlier work.
In series [2] the test system is HCV. Nature of the series: EC90 of Formula XIVa used as plasma concentration threshold. The following applies: Hepatitis C virus.
For a further series, the system named is human liver cytosol. Nature of the series: Incubation of compound Formula Ia or Formula XXVII in human liver cytosol with AKR inhibitor or CYP3A4 inhibitor (formation of M+2 metabolite, LC-MS). It counts as in vitro ADME. The protocol:
Prior to the addition of drug, the incubation mixture was preincubated for 2 min at 37° C. […] Human liver microsomes and cytosol without NADPH served as negative controls. Parallel incubations with the compound of Formula Ia were used as positive controls. […] All incubations were performed as described previously for human liver cytosols. […] Parallel incubations with the compound of Formula Ia were used as positive controls.

Series [3] is described as follows: Exposure multiple of Formula Ia, most sensitive animal species versus humans. It counts as in vivo. The note with it: most sensitive animal species compared with mean exposure in humans receiving 400 mg TID.
Series [4] is described as follows: Clinical study: effect of ketoconazole or ibuprofen on the pharmacokinetics of Formula Ia. It counts as in vivo, human. The following applies: for AUC / half-life: human, plasma, po, 400 mg. How it is done:
The study was conducted in an open-label, randomized, 3-period, 2-sequence crossover manner (FIG. 2). During Period 1, all 12 human subjects were administered a single 400 mg dose of Formula Ia. During Periods 2 and 3, human subjects received multiple doses of interacting drug, either ketoconazole (400 mg BID) or ibuprofen (600 mg TID) in a randomized sequence. The interacting drug was administered beginning on Day 1 (3 days prior to Formula Ia administration) and continued through Day 6. A single dose of Formula Ia was administered on Day 4 (2 hours after administration of the AM dose of interacting drug). Plasma samples for pharmacokinetic and metabolite analyses of Formula Ia was collected at predose (0 hour), 0.5, 1, 1.5, 2, 2.5, 3, 4, 5, 6, 7, 8, 9, 10, 12, 24, 36, 48, and 72 hour postdose for each period. (The 48 and 72 hour postdose samples for Period 1 was collected in an outpatient setting). In Periods 2 and 3, additional blood samples were collected immediately prior to dosing of the Formula Ia on Day 4 and two hours post ketoconazole/ibuprofen administration on Day 5 for determination of ketoconazole or ibuprofen concentration. • Treatment A: Formula Ia (4×100 mg capsules); single dose, P.O following an overnight fast, administered on Day 1 or Period 1. • Treatment B: Ketoconazole 400 mg; PO, administered BID from Day 1 to Day 6, Formula Ia (4×100 mg capsules); single dose, PO following an overnight fast, administered on Day 4 (2 hours after the AM ketoconazole dose). • Treatment C: Ibuprofen 600 mg; PO, TID from Day 1 to Day 6 Formula Ia (4×100 mg capsules); single dose, PO following an overnight fast, administered on Day 4 (2 hours after the AM ibuprofen dose).
Human subjects received a single dose of Formula Ia on Day 1 of Period 1. In Period 2 and Period 3, human subjects were treated for 6 days with either ketoconazole or ibuprofen and received a single dose of Formula Ia on Day 4 of each period. There were at least 7 days between administration of Formula Ia in Period 1 and Period 2 and at least 14 days between administration of Formula Ia in Period 2 and 3.
The proportion of human subjects with plasma concentrations above the in vitro IC50 and IC90 for the HCV replicon at each time point was determined. This plasma concentration data was used to estimate the following primary pharmacokinetic variables for the determination of bioavailability comparisons: • AUC(tf)—Area under the plasma concentration-time curve from Time 0 […]. • Cmax—Maximum observed plasma concentration. • Tmax—Time to maximum observed plasma concentration. • t½—Terminal phase half-life.

Series [5] can be described thus: Exposure to Formula Ia when coadministered with food. It counts as in vivo.
Series [6] is described as follows: Clinical study: pharmacokinetics of Formula Ia administered in combination with ritonavir. It counts as in vivo, human. How it is done: This study was an open-label, randomized, 2-period fixed-sequence, multiple-dose study (FIG. 4). The safety of coadministration of Formula Ia and ritonavir, as well as the quantitation of the ability of ritonavir to enhance Formula Ia PK parameters (specifically trough concentration values) in healthy human subjects was explored. A dose of 400 mg TID of Formula Ia coadministered with ritonavir was selected, as we have substantial safety and PK data available with Formula Ia administered alone at 400 mg TID and 800 TID for comparison. The dose selected of ritonavir was at a level to inhibit CYP3A4 and below the therapeutic dose for HIV. […] In this study, the effect of ritonavir on Formula Ia was examined as a low dose (100 mg) at two different dosing frequencies (i.e., once in the morning (QAM) and twice a day (BID)), which are commonly administered in HIV therapy. Based upon the findings of these regimens, subsequent regimens may be explored, with modification of the Formula Ia and/or ritonavir component(s). Human subjects received Formula Ia alone for 5 days in order to achieve steady-state. Human subjects were then randomized to receive one of two treatment regimens in which ritonavir was coadministered with Formula Ia (Formula Ia for 10 days, ritonavir administered for 12 days). Steady-state PK samples for Formula Ia were collected on Day 5 (Formula Ia alone), and on Day 15 (Formula Ia+ritonavir) and the PK parameters (primarily trough concentrations values) compared. […] In Period 1, all 16 human subjects received Treatment A and in Period 2 human subjects were randomized to either Treatment B or Treatment C (8 human subjects/treatment). […] Treatment A: Formula Ia 400 mg TID, every 8 hours) (Q8° following a meal or snack. Period 2 (Days 6 to 17): Treatment B: Formula Ia 400 mg TID (Q8°, Days 6 to 15), ritonavir 100 mg QAM (Days 6 to 17), following a meal or snack; Treatment C: Formula Ia 400 mg BID, every 12 hours ([…]°), (Days 6 to 15), ritonavir 100 mg BID, […]° (Days 6 to 17), following a meal or snack. Formula Ia (2×200 mg 3% SLS containing capsules), PO, TID, following a meal or snack. Formula Ia (2×200 mg 3% SLS containing capsules), PO, BID, following a meal or snack. Ritonavir (1×100 mg capsules), PO, QAM, following a meal or snack. Ritonavir (1×100 mg capsules), PO, BID, following a meal or snack. The trough levels after multiple-dosing of Formula Ia alone (Day 5) and after multiple-dosing of Formula Ia in combination with ritonavir (Day 15) were compared. […] AUC, Cmax, Cmin, and Tmax. […] The primary pharmacokinetic parameter is Cmin. The secondary parameters are Cmax and AUC. The log transformed pharmacokinetic parameters including Cmin, AUC, and Cmax were statistically analyzed using ANOVA model extracting effects due to treatment and human subject. […] The corresponding 90% confidence intervals were also provided. There is no intention to compare Treatments B and C to each other. • Treatment A: Formula Ia 400 mg TID (Q8°) following a meal or snack. Period 2 (Days 6 to 17). • Treatment B: Formula Ia 400 mg TID (Q8°, Days 6 to 15), ritonavir 100 mg QAM (Days 6 to 17) following a meal or snack. • Treatment C: Formula Ia 400 mg BID ([…]° Days 6 to 15), ritonavir 100 mg BID ([…]°, Days 6 to 17) following a meal or snack.

The subject of series [7] is HCV. The following applies: HCV positive patients, Nelson et al. 2003; cited from earlier work.
[8] abbreviates: Mean (% CV), plasma Formula Ia, single 400 mg dose PO, human subjects.
[9] abbreviates: co-administering ketoconazole with Formula Ia.

With `CC(C)c1nc(CN(C)C(=O)N[C@H](C(=O)N[C@@H](Cc2ccccc2)C[C@H](O)[C@H](Cc2ccccc2)NC(=O)OCc2cncs2)C(C)C)cs1` [ritonavir], the half life in series [1] was 3 to 5 h.
`CCCCC(NC(=O)[C@@H]1[C@@H]2[C@H](CN1C(=O)[C@@H](NC(=O)NC1(CS(=O)(=O)C(C)(C)C)CCCCC1)C(C)(C)C)C2(C)C)C(=O)C(=O)NC1CC1` (some centres unmarked) [Formula XIVa]: it took 0.03 µg/mL to reach the 90% level in the series on HCV [2] (EC90).
`CC(C)(C)NC(=O)N[C@H](C(=O)N1CC2C([C@H]1C(=O)NC(CC1CCC1)C(=O)C(N)=O)C2(C)C)C(C)(C)C` (some centres unmarked) [Formula Ia]: the “1ST PARENT PEAK AREA” value worked out at 3.81E+07 in the series on human liver cytosol (HL Cytosol w/ NADPH + 2 uM Ritonavir); 6.19E+07 in the series on human liver cytosol (HL Cytosol w/ NADPH + 50 uM Mefenamic acid); 6.33E+07 in the series on human liver cytosol (HL Cytosol w/ NADPH + 100 uM Flufenamic acid); 6.23E+07 with human liver cytosol (HL Cytosol w/ NADPH + 100 uM Phenolphthalein); 6.10E+07 with human liver cytosol (HL Cytosol w/ NADPH + 200 uM Diflunisal); 3.95E+07 in the series on human liver cytosol (HL Cytosol w/ NADPH Vehicle Control). Further, the “1ST PARENT PEAK AREA” value in the series on human liver cytosol (HL Cytosol w/o NADPH, 20 μM substrate, 60 min, 37° C.) is 7.41E+07. The molecule further came in with an exposure multiple in series [3] of at least 4 fold. In addition, the Cmax in series [4] (Mean (% CV), plasma Formula Ia, single 400 mg dose PO, fasted human subjects, alone or with ketoconazole 400 mg BID or ibuprofen 600 mg TID) worked out at 571 ng/mL; in series [6] (plasma, oral, Mean PK (% CV), Formula Ia TID (400 mg) alone, Day 5, with food, healthy human subjects), 1360 ng/mL. In series [4] (setting [8]), this molecule gave an AUC(0-t) of 2000 ng·h/mL. The C8 in series [4] (setting [8]) was 48.0 (38); in series [6] (Mean PK (% CV), Formula Ia TID (400 mg) alone, Day 5) it was 104 (31). Also, the MRT in series [4] (setting [8]) is 6.57 h. Besides, the “increase in Cmax (average)” value in series [4] (setting [9]) is 40%. Further, the “increase of overall exposure (AUC)” value in series [4] (setting [9]) is reported as “more than 2 fold”. The “increase of trough concentration (C8)” value in series [4] (setting [9]) is on record as “approximately 3 fold”. The “increase in the bioavailability of Formula Ia” value in series [4] (coadministration of ketoconazole compared to monotherapy of Formula Ia alone) was 2 fold. For the same molecule, the “mean residence time (MRT) and effective half-life” value in series [4] (effect of ketoconazole) is on record as “increased”. In addition, the AUC in series [4] (Mean (% CV), plasma Formula Ia, single 400 mg dose PO, human subjects, read-out: AUC(l)) stood at 2070 ng·h/mL; in series [4] (Mean (% CV), plasma Formula Ia, single 400 mg dose PO, human subjects, read-out: AUCall), 2040 ng·h/mL; in series [6] (human, plasma, oral, Mean PK (% CV), Formula Ia TID (400 mg) alone, Day 5, read-out: AUC8) it was 4120 ng·h/mL. Moreover, the half-life was 9.11 h in series [4] (Mean (% CV), plasma Formula Ia, single 400 mg dose PO, human subjects, read-out: t½ (converted)) and 3.3 h in series [4] (Mean (% CV), plasma Formula Ia, single 400 mg dose PO, human subjects, read-out: t½ eff (converted)). The Tmax is 1.75 h in series [4] (median, plasma Formula Ia, single 400 mg dose PO, human subjects) and 2.13 h in series [6] (human, plasma, oral, Mean PK (% CV), Formula Ia TID (400 mg) alone, Day 5). For the same molecule, the exposure entry in series [5] is given as “increases”. For the same molecule, the “effect on the PK parameters examined” value in series [6] (coadministration with 100 mg ritonavir QD or BID compared to monotherapy of Formula Ia alone) is on record as “no effect”.

B1: recombinant human IL-10: recombinant human IL-10 given to HCV positive patients in a Phase II clinical study (protein)
chain: SPGQGTQSENSCTHFPGNLPNMLRDLRDAFSRVKTFFQMKDQLDNLLLKESLLEDFKGYLGCQALSEMIQFYLEEVMPQAENQDPDIKAHVNSLGENLKTLRLRLRRCHRFLPCENKSKAVEQVKNAFNKLQEKGIYKAMSEFDIFINYIEAYMTMKIRN
B1: in the series on HCV [7], the hepatic fibrosis entry is “decrease” and the viral load result is reported as “increase”.

As usually defined, the EC90 is the point of the concentration-response curve where the effect stands at 90%. Lower therefore signals an effect from little substance.
